Assay results from patent US6395762B1, “Phenyl amino squarate and thiadiazole dioxide beta-3 adrenergic receptor agonists” (American Home Products Corporation, priority 2000, dated 2002).

Molecular target: T1, human β3-AR (Homo sapiens, UniProt P13945)
T1 construct: Full-length β3-AR clones (402 amino acids) containing the last 6 amino acids of hβ3-AR; expressed in transfected cells; host or cells: CHO (Chinese hamster ovary) cells
Experiment: cAMP accumulation (SPA) in CHO cells transfected with human β3-AR
Type: cell-based
Details: CHO cells transfected with human β3-AR; for EC50: cAMP by SPA, 30 min at 37° C., 10^−9 M to 10^−5 M, read-out: EC50(β3); for IA(β3): maximal response of compound relative to maximal response of isoproterenol at 10^−5 M
Protocol: The ability of the compounds of this invention to treat or inhibit disorders related to insulin resistance or hyperglycemia was confirmed with representative compounds of this invention in the following standard pharmacological test procedures, which measured the binding selectivity of the β1-, β2-, and β3-AR. Binding to the receptors was measured in Chinese Hamster ovary (CHO) cells that were transfected with β1-, β2-, and β3-AR's. The following briefly summarizes the procedures used and results obtained.
Cloning of Human β3-AR Genomic DNA: cDNA was constructed by ligating four polymerase chain reaction (PCR) products using the following primers: an ATG-Narl fragment, sense primer 5′-[…]3′ and anti-sense primer 5′[…]3′; a Narl-Accl fragment, 5′[…]3′ as sense and 5′[…]3′ as anti-sense primer; an Accli—Styl fragment, sense primer 5′[…]3′ and anti-sense primer 5′[…]3′ and a Styl-TAG fragment, with sense primer 5′ […]3′ and anti-sense primer 5′ […]3′ . The corresponding primer sequences are described in Mantzoros, C. S., et.al., Diabetes, 1996, 45, 909-914. The four fragments are ligated into a pUC 18 plasmid (Gibco-BRL) and sequenced. Full-length β3-AR clones (402 amino acids) containing the last 6 amino acids of hβ3-AR are prepared with the β3-βARpcDNA3 from ATTC.
Binding Procedure: Clones expressing receptor levels of 70 to 110 fmoles/mg protein were used in the test procedures. CHO cells were grown in 24-well tissue culture plates in Dulbecco's Modified Eagle Media with 10% fetal bovine serum, MEM non-essential amino acids, Penicillin—Streptomycin and Geneticin. On the day of test procedure, growth medium was replaced with preincubation media (Dulbecco's Modified Eagle Media) and incubated for 30 minutes at 37° C. Pre-incubation medium was replaced with 0.2 ml treatment medium containing DMEM media containing 250 μM IBMX (isobutyl-1-methylxantine) plus 1 mM ascorbic acid with test compound dissolved in DMSO. Test compounds were assayed over a concentration range of 10^−9 M to 10^−5 M for β3-AR transfected cells and 10^−8 to 10^−4 M for β1-AR and β2-AR transfected cells. Isoproterenol (10^−5 M) was used as an internal standard for comparison of activity. Cells were incubated at 37° C. on a rocker for 30 min with the β3-AR transfected cells and 15 min with β1-AR and β2-AR transfected cells. Incubation was stopped by the addition of 0.2N HCl and the acid was neutralized with 2.5N NaOH. The plates, containing the cells and neutralized media, were stored at −20° C. until ready to test for cAMP using the SPA test kit (Amersham).
Data Analysis and Results: Data collected from the SPA test procedure were analyzed as percent of the maximal isoproterenol response at 10^−5 M. Activity curves were plotted using the SAS statistical and graphics software.

T1 sequence (P13945 whole entry): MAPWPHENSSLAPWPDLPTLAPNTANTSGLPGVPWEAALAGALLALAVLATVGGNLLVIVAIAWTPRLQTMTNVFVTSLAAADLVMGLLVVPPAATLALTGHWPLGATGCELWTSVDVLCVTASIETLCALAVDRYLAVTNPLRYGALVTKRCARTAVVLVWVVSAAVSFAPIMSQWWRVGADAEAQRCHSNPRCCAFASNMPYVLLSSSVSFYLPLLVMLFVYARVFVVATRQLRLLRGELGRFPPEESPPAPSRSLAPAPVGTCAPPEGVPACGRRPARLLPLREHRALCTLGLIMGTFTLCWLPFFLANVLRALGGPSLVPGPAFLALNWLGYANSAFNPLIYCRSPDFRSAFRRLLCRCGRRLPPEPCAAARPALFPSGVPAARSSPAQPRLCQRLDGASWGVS

Row | Compound | EC50 | IA(β3)
1 | CN(C)c1ccc(C2(CNC3=NS(=O)(=O)N=C3Nc3ccc(CC(C)(C)NC[C@H](O)COc4ccc(OCc5ccccc5)cc4)cc3)CCCC2)cc1 [7 (step E), (2S)-1-(4-Benzyloxy-phenoxy)-3-{2-{4-(4-{[1-(4-dimethylamino-phenyl)-cyclopentylmethyl]-amino}-1,1-dioxo-1H-1(lambda(6))-[1,2,5]thiadiazol-3-ylamino)-phenyl]-1,1-dimethyl-ethylamino}-propan-2-ol] | 682 nM | 0.56
2 | CCCCCCCCNC1=NS(=O)(=O)N=C1Nc1ccc(CCNC[C@H](O)COc2ccc(OCc3ccccc3)cc2)cc1 [5 (step E), (2S)-1-(4-Benzyloxy-phenoxy)-3-{2-[4-(4-octylamino-1,1-dioxo-1H-1.lambda(6).-[1,2,5]thiadiazol-3-ylamino)-phenyl]ethylamino}-propan-2-ol] | 1390 nM | 0.15
3 | CCOC(=O)CCCNC1=NS(=O)(=O)N=C1Nc1ccc(CC(C)NC[C@H](O)COc2ccc(OCc3ccccc3)cc2)cc1 (stereo partly drawn) [Compound 32, 4-[4-(4-{2-[(2S)-3-(4-benzyloxy-phenoxy)-2-hydroxy-propylamino]-propyl}-phenylamino)-1,1-Dioxo-1H-1(lambda(6))-[1,2,5]thiadiazol-3-ylamino]-butyric acid ethyl ester] | 90 nM | 0.62
4 | CCCCCCCCNC1=NS(=O)(=O)N=C1Nc1ccc(CC(C)NC[C@H](O)c2ccc(OCc3ccccc3)c(NS(C)(=O)=O)c2)cc1 (stereo partly drawn) [6 (step B), N-[2-Benzyloxy-5-((1R)-1-hydroxy-2-{1-methyl-2-[4-(4-octylamino-1,1-dioxo-1H-1(lambda(6))-[1,2,5]thiadiazol-3-ylamino)-phenyl]-ethylamino}-ethyl)-phenyl]-methanesulfonamide] | – | 0.32
5 | (2S)-1-(4-Benzyloxy-phenoxy)-3-{2-[4-(4-decylamino-1,1-dioxo-1H-1-. lambda(6).-[1,2,5]thiadiazol-3-ylamino)-phenyl]-1-methyl-ethylamino}-propan-2-ol [Compound 18] | – | 0.46
6 | CCCCCCCCCCNC1=NS(=O)(=O)N=C1Nc1ccc(CC(C)NC[C@H](O)COc2ccc(O)cc2)cc1 (stereo partly drawn) [Compound 25, 4-((2S)-3-{2-[4-(4-Decylamino-1,1-dioxo-1H-1(lambda(6))-[1,2,5]thiadiazol-3-ylamino)-phenyl]-1-methyl-ethylamino}-2-hydroxy-propoxy)-phenol] | 88 nM | 0.85
7 | CCCCCCCCNC1=NS(=O)(=O)N=C1Nc1ccc(CC(C)(C)NC[C@H](O)COc2ccc(OCc3ccccc3)cc2)cc1 [4 (step F)] | 1060 nM | 0.37
8 | CCCCCCCCCCNC1=NS(=O)(=O)N=C1Nc1ccc(CC(C)NC[C@H](O)COc2ccccc2)cc1 (stereo partly drawn) [Compound 20, (2S)-1-{2-[4-(4-Decylamino-1,1-dioxo-1H-1(lambda(6))-[1,2,5]thiadiazol-3-ylamino)-phenyl]-1-methyl-ethylamino}-3-phenoxy-propan-2-ol] | – | 0.39
9 | CCCCCCCCNC1=NS(=O)(=O)N=C1Nc1ccc(CC(C)NC[C@H](O)COc2ccc(OCc3ccccc3)cc2)cc1 (stereo partly drawn) [Compound 11, (2S)-1-(4-Benzyloxy-phenoxy)-3-{1-methyl-2-[4-(4-octylamino-1,1-dioxo-1H-1.lambda(6).-[1,2,5]thiadiazol-3-ylamino)-phenyl]-ethylamino}-propan-2-ol] | – | 0.29

Further lines, results first:

Row | EC50 | IA(β3) | Compound
10 | 38 nM | 0.86 | CCCCCCCCNC1=NS(=O)(=O)N=C1Nc1ccc(CC(C)NCC(O)c2cccc(Cl)c2)cc1 [Compound 3, (1R)-1-(3-Chloro-phenyl)-2-{1-methyl-2-[4-(octylamino-1,1-dioxo-1H-1-.lambda(6).-1,2,5]thiadiazol-3-ylamino)-phenyl]-ethylamino}-ethanol]
11 | 60 nM | 0.40 | CCCCCCNC(=O)Nc1ccc(C2(CNC3=NS(=O)(=O)N=C3Nc3ccc(CC(C)(C)NC[C@@H](O)COc4ccc(OCc5ccccc5)cc4)cc3)CCCC2)cc1 [8 (step H), 1-[4-(1-{[4-(4-{2-[(2R)-3-(4-Benzyloxy-phenoxy)-2-hydroxy-propylamino]-2-methyl-propyl}-phenylamino)-1 1-dioxo-1H-1.lambda(6).-[1,2,5]thiadiazol-3-ylamino]-methyl}-cyclopentyl)-phenyl]-3-hexyl-urea]
12 | 55 nM | 0.74 | CN(C)c1ccc(C2(CNC3=NS(=O)(=O)N=C3Nc3ccc(CC(C)(C)NC[C@H](O)COc4ccc(O)cc4)cc3)CCCC2)cc1 [Compound 7, 4-{[(2S)-3-({2-[4-({4-[({1-[4-(dimethylamino)phenyl]cyclopentyl}methyl)amino]1,1-dioxido-1,25-thiadiazol-3-yl}amino)phenyl]-1 1-dimethylethyl}amino)-2-hydroxypropyl]oxy}phenol]
13 | 68 nM | 1.10 | CCCCCCCCNC1=NS(=O)(=O)N=C1Nc1ccc(CC(C)(C)NC[C@H](O)COc2ccc(O)cc2)cc1 [Compound 4]
14 | 0.8 nM | 1.0 | CN(C)c1ccc(C2(CNC3=NS(=O)(=O)N=C3Nc3ccc(CC(C)(C)NCC(O)c4ccc(O)c(NS(C)(=O)=O)c4)cc3)CCCC2)cc1 (centres unmarked) [Compound 34, N-[5-(2-{2-[4-(4-{[1-(4-dimethylamino-phenyl)-cyclopentylmethyl]-amino}-1,1-dioxo-1H-1.lambda(6).-[1,2,5]thiadiazol-3-ylamino)-phenyl]-1,1-dimethyl-ethylamino}-1-hydroxy-ethyl)-2-hydroxy-phenyl]-methanesulfonamide]
15 | 14 nM | 0.89 | CC(C)(Cc1ccc(NC2=NS(=O)(=O)N=C2NCC(c2ccccc2)c2ccccc2)cc1)NC[C@H](O)COc1ccc(O)cc1 [Compound 29, 4-[(2S)-3-(2-{4-[4-(2,2-Diphenyl-ethylamino)-1,1-dioxo-1H-1(lambda(6))-[1,2,5]thiadiazol-3-ylamino]-phenyl}-1,1-dimethyl-ethylamino)-2-hydroxy-propoxy]l-phenol]
16 | 37 nM | 1.17 | CCOC(=O)CCCNC1=NS(=O)(=O)N=C1Nc1ccc(CC(C)NC[C@H](O)COc2ccc(O)cc2)cc1 (stereo partly drawn) [Compound 33, 4-{4-(4-{2-[(2S)-2-Hydroxy-3-(4-hydroxy-phenoxy)-propylamino]-propyl}-phenylamino)-1,1-dioxo-1H-1.lambda(6).-[1,2,5]thiadiazol-3-ylamino]-butyric acid ethyl ester]
17 | 21 nM | 0.81 | CCCCCCCCNc1c(Nc2ccc(CC(C)NC[C@H](O)COc3ccc(O)cc3)cc2)c(=O)c1=O (stereo partly drawn) [Compound 14, 3-(4-{2-[(2S)-2-Hydroxy-3-(4-hydroxy-phenoxy)-propylamino]-propyl}-phenylamino)-4-octylamino-cyclobut-3-ene-1,2-dione]
18 | 5 nM | 1.0 | CC(Cc1ccc(NC2=NS(=O)(=O)N=C2NCC2(c3ccccc3)CCCC2)cc1)NC[C@H](O)COc1ccc(O)cc1 (stereo partly drawn) [Compound 31, 4-{(2S)-3-[2-(4-{1,1-Dioxo-4-[(1-phenyl-cyclopentylmethyl)-amino]-1H-1(lambda(6))-[1,2,5]thiadiazol-3-ylamino}-phenyl)-1-methyl-ethylamino]-2-hydroxy-propoxy}-phenol]
